By IC50 is commonly meant the midpoint of a concentration-inhibition curve. What is called Ki is the dissociation constant of the complex between target and ligand, obtained from inhibition or displacement.

Results on 1 molecule are retold here after US20100093808A1, “SALT AND POLYMORPH OF A DPP-IV INHIBITOR” (priority 2005, published 2010).

Where a name gives a salt, the structure may show the parent alone.

The target in the experiment is T1, human DPP-IV (Homo sapiens, UniProt P27487).
T1 construct: made in house; host or cells: Pichia pastoris (purified from the culture medium)
T1 sequence (P27487 31-766): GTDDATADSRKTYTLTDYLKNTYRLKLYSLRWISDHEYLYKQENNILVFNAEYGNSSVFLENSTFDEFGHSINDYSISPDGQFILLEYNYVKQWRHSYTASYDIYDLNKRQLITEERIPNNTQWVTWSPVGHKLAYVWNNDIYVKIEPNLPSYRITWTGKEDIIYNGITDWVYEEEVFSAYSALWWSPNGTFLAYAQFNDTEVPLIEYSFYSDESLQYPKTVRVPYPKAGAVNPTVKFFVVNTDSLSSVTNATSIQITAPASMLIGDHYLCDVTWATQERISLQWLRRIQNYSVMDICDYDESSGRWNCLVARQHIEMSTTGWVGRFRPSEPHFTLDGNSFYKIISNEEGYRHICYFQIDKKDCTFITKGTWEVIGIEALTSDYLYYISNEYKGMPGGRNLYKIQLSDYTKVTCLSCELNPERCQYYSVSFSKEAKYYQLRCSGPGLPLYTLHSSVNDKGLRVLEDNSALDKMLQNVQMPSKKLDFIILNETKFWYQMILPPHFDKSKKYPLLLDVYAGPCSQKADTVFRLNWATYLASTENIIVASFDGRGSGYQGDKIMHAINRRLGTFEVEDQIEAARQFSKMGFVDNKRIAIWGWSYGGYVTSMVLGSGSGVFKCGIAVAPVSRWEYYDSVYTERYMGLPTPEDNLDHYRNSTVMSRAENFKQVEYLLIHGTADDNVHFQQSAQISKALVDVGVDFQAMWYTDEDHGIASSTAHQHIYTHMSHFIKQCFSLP
Kind of experiment: DPP-IV activity assay (colorimetric / fluorometric). It is filed as biochemical. The following applies: natural human DPP-IV from human plasma pool or recombinant human DPP-IV; 37° C., pH 7.8. Here is the method:
Activity of DPP-IV inhibitors are tested with natural human DPP-IV derived from a human plasma pool or with recombinant human DPP-IV. Human citrate plasma from different donors is pooled, filtered through a 0.2 micron membrane under sterile conditions and aliquots of 1 mL are shock frozen and stored at […]. until used. In the colorimetric DPP-IV assay 5 to 10 μL human plasma and in the fluorometric assay 1.0 μL of human plasma in a total assay volume of 100 μL is used as an enzyme source. The cDNA of the human DPP-IV sequence of amino acid 31- to 766, restricted for the N-terminus and the transmembrane domain, is cloned into pichia pastoris. […]
In the colorimetric assay H-Ala-Pro-pNA.HCl (Bachem L-1115) is used as a substrate. […] Fluorescence is detected in a Perkin Elmer Luminescence Spectrometer LS 50B at an excitation wavelength of 400 nm and an emission wavelength of 505 nm continuously every 15 seconds for 10 to 30 minutes. Initial rate constants are calculated by best fit linear regression. The absorption of pNA liberated from the colorimetric substrate is detected in a Packard SpectraCount at […] continuously every 2 minutes for 30 to 120 minutes. Initial rate constants are calculated by best fit linear regression. […]
IC50 determinations of test compounds are calculated by non-linear best fit regression of the DPP-IV inhibition of at least 5 different compound concentrations. […]

With `CC(C)(CCn1cnc(-c2cccnc2)c1)NCC(=O)N1CCC[C@H]1C#N` [(2S)-1-{[1,1-Dimethyl-3-(4-pyridin-3-yl-imidazol-1-yl)-propylamino]-acetyl}-pyrrolidine-2-carbonitrile fumarate], the IC50 turned out to be 21.2 nM and the Ki was found to be 22.7 nM.
